Experimental data reported in patent EP3807270B1, “NOVEL HETEROARYL HETEROCYCLYL COMPOUNDS FOR THE TREATMENT OF AUTOIMMUNE DISEASE” (F. Hoffmann-La Roche AG, priority 2018, dated 2019).

Legend:
[1] = Human microsome stability assay; format: in vitro ADME; details: 1 µM test compound, 0.5 mg/mL liver microsomal protein, 37 °C
How it was run: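 Test compound at 1 µM was incubated with human liver microsomes (0.5 mg/mL protein) and an NADPH-regenerating system in 100 mM potassium phosphate, pH 7.4, at 37 °C. Samples were taken at 0–30 min and quenched with acetonitrile. Remaining compound was quantified by LC-MS/MS, with no-NADPH controls.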

hTLR9 = target: T1, hTLR9 (Homo sapiens, UniProt Q9NR96); experiment: HEK293-Blue-hTLR-9 cells assay (SEAP reporter, ODN2006 stimulation); format: cell-based; parameters: host or cells: HEK293 (HEK-Blue); details: HEK293-Blue-hTLR9 cells, ODN2006, 20 hrs; read-out: HEK/hTLR9 IC50
T1 sequence (Q9NR96 26-1032): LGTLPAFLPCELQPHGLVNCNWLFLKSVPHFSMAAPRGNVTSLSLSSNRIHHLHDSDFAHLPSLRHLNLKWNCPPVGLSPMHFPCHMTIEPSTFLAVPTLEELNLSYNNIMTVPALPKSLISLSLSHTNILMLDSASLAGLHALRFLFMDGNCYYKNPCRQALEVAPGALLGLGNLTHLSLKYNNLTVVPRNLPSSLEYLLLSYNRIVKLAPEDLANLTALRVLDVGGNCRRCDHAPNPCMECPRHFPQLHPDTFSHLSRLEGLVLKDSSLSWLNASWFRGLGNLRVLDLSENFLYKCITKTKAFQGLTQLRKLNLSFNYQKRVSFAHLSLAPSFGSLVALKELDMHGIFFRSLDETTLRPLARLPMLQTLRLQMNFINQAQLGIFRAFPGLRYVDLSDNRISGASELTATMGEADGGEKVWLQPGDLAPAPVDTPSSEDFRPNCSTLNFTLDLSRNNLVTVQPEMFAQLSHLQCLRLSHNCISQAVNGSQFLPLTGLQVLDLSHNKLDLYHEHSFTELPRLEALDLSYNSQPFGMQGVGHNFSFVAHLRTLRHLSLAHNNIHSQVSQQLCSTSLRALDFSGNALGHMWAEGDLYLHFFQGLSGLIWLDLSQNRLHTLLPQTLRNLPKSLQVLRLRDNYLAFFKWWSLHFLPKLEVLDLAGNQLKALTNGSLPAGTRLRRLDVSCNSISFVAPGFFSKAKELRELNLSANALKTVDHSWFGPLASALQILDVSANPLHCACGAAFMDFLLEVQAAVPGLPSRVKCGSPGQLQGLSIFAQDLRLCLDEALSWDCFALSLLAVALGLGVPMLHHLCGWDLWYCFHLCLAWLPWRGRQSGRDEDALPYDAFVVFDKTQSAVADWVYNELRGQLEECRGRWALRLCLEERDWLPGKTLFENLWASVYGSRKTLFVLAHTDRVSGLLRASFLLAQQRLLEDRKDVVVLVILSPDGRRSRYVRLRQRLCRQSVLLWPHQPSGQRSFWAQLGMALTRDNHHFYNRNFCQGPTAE
How it was run: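 HEK293-Blue-hTLR9 cells (250,000-450,000 cells/mL) in DMEM with 10% FBS were treated with serially diluted compound (1% DMSO final) plus ODN2006 for 20 hrs at 37 °C. Supernatant SEAP activity was measured with QUANTI-Blue substrate for 2 hrs at 37 °C, reading absorbance at 620-655 nm.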

SMILES | Clearance of Human microsome [1] | IC50 (hTLR9)
C[C@@H]1CN(c2ccc(C#N)c3nccnc23)C[C@H](CN2CCN(c3ccc4c(n3)CN[C@H]4C)CC2)O1 (single isomer, unassigned) [Example 78] | 7.50 mL/min/kg | 131 nM
C[C@@H]1CN(c2ccc(C#N)c3nccnc23)C[C@H](CN2CCN(c3cc4c(cn3)C[C@H](C)NC4)CC2)O1 (single isomer, unassigned) [Example 81] | 6.15 mL/min/kg | 96 nM
C[C@@H]1Cc2cnc(N3CCN(C[C@H]4CN(c5ccc(C#N)c6nccnc56)C[C@@H](C)O4)CC3)cc2CN1 (single isomer, unassigned) [Example 82] | 8.84 mL/min/kg | 192 nM
C[C@@H]1Cc2cc(N3CCN(C[C@H]4CN(c5ccc(C#N)c6nccnc56)C[C@@H](C)O4)CC3)ncc2CN1 (single isomer, unassigned) [Example 83] | 8.31 mL/min/kg | 124 nM
C[C@@H]1CN(c2ccc(C#N)c3nccnc23)C[C@H](CN2CCN(c3cc4c(cn3)[C@H](C)NCC4)CC2)O1 (single isomer, unassigned) [Example 85] | 7.83 mL/min/kg | 87 nM
C[C@@H]1CN(c2ccc(C#N)c3ncccc23)C[C@H](CN2CCN(c3ccc4c(c3)CNC4)CC2)O1 [Example 7, 5-[(2S,6R)-2-[(4-isoindolin-5-ylpiperazin-1-yl)methyl]-6-methyl-morpholin-4-yl] quinoline-8-carbonitrile] | 8.75 mL/min/kg | 89 nM
C[C@@H]1CN(c2ccc(C#N)c3ncccc23)C[C@H](CN2CCN(c3ccc4c(c3)CNC4)C(CO)C2)O1 (stereo partly drawn) [Example 13, 5-[(2S,6R)-2-[[3-(hydroxymethyl)-4-isoindolin-5-yl-piperazin-1-yl]methyl]-6-methyl-morpholin-4-yl]quinoline-8-carbonitrile] | 8.00 mL/min/kg | 109 nM
C[C@@H]1CN(c2ccc(C#N)c3ncccc23)C[C@H](CN2CCN(c3cc4c(cn3)CCNC4)CC2)O1 [Example 20, 5-[(2R,6S)-2-methyl-6-[[4-(5,6,7,8-tetrahydro-2,6-naphthyridin-3-yl)piperazin-1-yl]methyl]morpholin-4-yl]quinoline-8-carbonitrile] | 6.43 mL/min/kg | 72 nM
C[C@@H]1CN(c2ccc(C#N)c3ncccc23)C[C@H](CN2CCN(c3ccc4c(c3)C(O)CNC4)CC2)O1 (stereo partly drawn) [Example 22, 5-[(2S,6R)-2-[[4-(4-hydroxy-1,2,3,4-tetrahydroisoquinolin-6-yl)piperazin-1-yl]methyl]-6-methyl-morpholin-4-yl]quinoline-8-carbonitrile] | 6.82 mL/min/kg | 45 nM
C[C@@H]1CN(c2ccc(C#N)c3ncccc23)C[C@H](CN2CCN(c3cnc4c(c3)CCNC4)CC2)O1 [Example 23, 5-[(2R,6S)-2-methyl-6-[[4-(5,6,7,8-tetrahydro-1,7-naphthyridin-3-yl)piperazin-1-yl]methyl]morpholin-4-yl]quinoline-8-carbonitrile] | 6.15 mL/min/kg | 59 nM
C[C@@H]1CN(c2ccc(C#N)c3ncccc23)C[C@H](CN2CCN(c3ccc4c(c3)CCNC4CO)CC2)O1 (stereo partly drawn) [Example 24, 5-[(2S,6R)-2-[[4-[1-(hydroxymethyl)-1,2,3,4-tetrahydroisoquinolin-6-yl]piperazin-1-yl]methyl]-6-methyl-morpholin-4-yl]quinoline-8-carbonitrile] | 6.15 mL/min/kg | 46 nM
CC1NCc2cc(N3CCN(C[C@H]4CN(c5ccc(C#N)c6ncccc56)C[C@@H](C)O4)CC3)ccc21 (stereo partly drawn) [Example 28, 5-[(2R,6S)-2-methyl-6-[[4-(1-methylisoindolin-5-yl)piperazin-1-yl]methyl]morpholin-4-yl]quinoline-8-carbonitrile] | 6.15 mL/min/kg | 52 nM
C[C@@H]1CN(c2ccc(C#N)c3ncccc23)C[C@H](CN2CCN(c3ccc4c(n3)CNCC4)CC2)O1 [Example 69, 5-[(2R,6S)-2-methyl-6-[[4-(5,6,7,8-tetrahydro-1,7-naphthyridin-2-yl)piperazin-1-yl]methyl]morpholin-4-yl]quinoline-8-carbonitrile] | 6.23 mL/min/kg | 83 nM
C[C@@H]1CN(c2ccc(C#N)c3nccnc23)C[C@H](CN2CCN(c3cc4c(cn3)CCNC4)CC2)O1 [Example 80, 8-[(2R,6S)-2-methyl-6-[[4-(5,6,7,8-tetrahydro-2,6-naphthyridin-3-yl)piperazin-1-yl]methyl]morpholin-4-yl]quinoxaline-5-carbonitrile] | 6.15 mL/min/kg | 100 nM
C[C@@H]1CN(c2ccc(C#N)c3ncccc23)C[C@H](CN2CCN(c3ccc(Cl)cc3)CC2)O1 [Example R2, 5-[(2S,6R)-2-[[4-(4-chlorophenyl)piperazin-1-yl]methyl]-6-methyl-morpholin-4-yl]quinoline-8-carbonitrile, reference compound] | 15.43 mL/min/kg | 7030 nM
